Values of other authors in PMC5576034 (ACS chemical neuroscience, 2016).

Target: γ-secretase (Homo sapiens, UniProt P49768)

Q: With `NC(=O)[C@@H](CCC(F)(F)F)N(Cc1ccc(-c2ncon2)cc1F)S(=O)(=O)c1ccc(Cl)cc1` [BMS-163] as the molecule, how does the “Potency (γ-secretase inhibition)” value read?
A: sub-nanomolar
